# Assay results as given in patent US5665367A, “Skin care compositions containing naringenin and/or quercetin and a retinoid” (Chesebrough-Pond's USA Co., Division of Conopco, Inc., priority 1996, dated 1997).
# Like-named read-outs stand apart in the source and are kept apart here.
# Tests used:
# [1] = tested on: transglutaminase (TGase I) in human keratinocytes; experiment: Transglutaminase assay (ELISA based TGase I assay) normalized to DNA in keratinocytes, Example 1; format: cell-based; settings: for decrease in transglutaminase level, dose dependence: 2.5×10^-9 to 2.5×10^-7 M; for activity at 0.25 µM / activity at 0.025 µM / activity at 0.0025 µM: Homo sapiens, Keratinocyte, read-out: mean TGase/DNA (% control); for activity at 0.25 µM / activity at 0.025 µM / activity at 0.0025 µM / mean TGase/DNA × 10^-4 ± s.d: 72 hours, Table 1, n = 3
# Protocol: (§1) Human keratinocytes, isolated from neonatal foreskin by trypsin treatment were grown in Dulbecco Modification Eagle (DME) Hams F12 (1:1) medium/10% fetal calf serum in the presence of irradiated 3T3 mouse fibroblasts for establishing dividing keratinocyte colonies. Cells were grown under the above condition until their second passage and kept frozen for future use. Frozen second passage keratinocytes were thawed and plated into the above medium and grown for five days before they were switched to a serum-free MCDB 153-based medium keratinocyte growth medium (KGM) from Clonetics Corporation, San Diego, Calif., containing 0.15 mM Ca, or keratinocyte serum-free media (KSFM) from GIBCO containing 0.09 mM Ca). On day 7, when the cells were 80-90% confluent, they were trypsinized and plated in the serum-free medium for the various experiments.
# (§2) During the process of terminal differentiation in the epidermis, a 15 nm thick layer of protein, known as the cornified envelope (CE) is formed on the inner surface of the cell periphery. The CE is composed of numerous distinct proteins which have been cross-linked together by the formation of N^ε -(γ-glutamyl) lysine isodipeptide bonds catalyzed by the action of at least two different transglutaminases (TGases) expressed in the epidermis. TGase 1 is expressed in abundance in the differentiated layers of the epidermis, especially the granular layer, but is absent in the undifferentiated basal epidermis. Thus TGase I is a useful marker of epidermal keratinocyte differentiation with high TGase I levels indicating a more differentiated state. An ELISA based TGase I assay, using a TGase I antibody, was used to assess the state of differentiation of the cultured keratinocytes in the examples that follow.
# For Example 1, the following procedure was used:
# Keratinocytes (cultured as described above) were plated in 96 well plates at a density of 3,000 cells per well in 200 μl media. After incubation for four days the media was changed to media containing test compounds (six replicates per test). The cells were cultured for a further 72 hours after which time the media was aspirated and the plates stored at -70° C. Plates were removed from the freezer, and the cells washed with PBS. 100 μl sterile water was added and the cells were freeze fractured by freezing at -70° C. then thawing. The cells were incubated for one hour at room temperature (R/T) with PBS/3% BSA (wash buffer, bovine serum albumin), then rinsed with a fresh aliquot of wash buffer. Cells were incubated with 50 μl of primary antibodies monoclonal anti-human transglutaminase mouse antibody (IgG) obtained from Biomedical Industries diluted 1:2,000 in wash buffer for one hour, 37° C. then rinsed two times with wash buffer. Cells were then incubated with 50 μl of secondary antibody (Fab fragment, peroxidase conjugated anti-mouse IgG obtaining from Amersham) diluted 1:4,000 in wash buffer for one hour at 37° C., then rinsed two times with wash buffer. Cells were incubated with substrate solution (4 mg o-phenylene diamine and 3.3 μl 30% H2 O2 in 10 ml 0.1M citrate buffer pH 5.0) for five minutes, R/T, in darkness (under aluminum foil). The reaction was stopped by the addition of 50 μl N H2 SO4. The absorbance of samples was read at 492 nm in the plate reader. Out of the six replicates, four were treated with both antibodies, two were treated only with the secondary antibody (i.e., to determine background binding of enzyme conjugated Ab). TGase levels were determined by subtracting background from the readings from each treatment and determining mean ±s.d. for the replicates exposed to both Ab.
# (§3) The level of TGase-1 detected after treatment of the cells could be influenced by cell number, i.e., the greater the number of cells the greater the level of TGase-1 detected. The level of TGase-1 was normalized to DNA content of the cells in the same well thus eliminating variation due to differences in cell number. […]
# [2] = tested on: transglutaminase I (TG1) in human keratinocytes; experiment: Transglutaminase assay (ELISA based TGase I assay) normalized to DNA in keratinocytes, Examples 2-4; format: cell-based; settings: for inhibition of keratinocyte differentiation compared with retinoic acid: summary of the studies
# Protocol: as §1, §2
# For Examples 2-4, the following procedure was used:
# Keratinocytes (cultured as described above) were plated in 96 well plates at a density of 3,000 cells per well in 200 μl of cell culture media. After incubation for four days, the media was changed to media containing test compounds (six replicates per test). The cells were cultured for a further 72 hours after which time the media was aspirated and the plates stored at -70° C. After the plates were removed from the freezer, the cells were further freezed fractured by freezing and thawing and then washed 3x with PBS. The cells were incubated for one hour at room temperature (R/T) with TBS/5% BSA buffer. Cells were then incubated with 100 μl of monoclonal anti-human transglutaminase (IgG) mouse antibody (primary antibody) obtained from Biomedical Technologies Inc. diluted 1:2000 in TBS/1% BSA buffer for two hours at 37° C., and then rinsed six times with wash buffer (TBS/1% BSA/0.05% Tween-20). Cells were next incubated with 100 μl of Fab fragment, peroxidase conjugated anti-mouse IgG antibody (secondary antibody) from Amersham diluted 1:4,000 in wash buffer for two hours at 37° C. and then rinsed three times with wash buffer and three times with PBS. Cells were incubated with substrate solution (4mg o-phenylene diamine and 3.3 μl 30% H2 O2 in 10mL 0.1M citrate buffer, pH 5.0) for five minutes at R/T and in darkness (under aluminum foil). The reaction was stopped by the addition of 50 μl N H2 SO4. The absorbance of samples was read at 492 nm in the plate reader. Out of the six replicates, four were treated with both antibodies, two were treated only with the secondary antibody (i.e., to determine the background binding of the enzyme conjugated antibody). Transglutaminase I levels were determined by subtracted background from the readings from each treatment and determining the mean s.d. for the replicates exposed to both antibodies.
# as §3
# [3] = 2.5 × 10^-7 M, 72 hour treatment, Table 4 (Example 4), n = 3
# [4] = Example 2: 2.5×10^-7 M retinoic acid, 2.5×10^-9 M retinol, 10^-7 M naringenin alone
# [5] = Example 4: 2.5×10^-7 M retinoic acid, 2.5×10^-7 M retinol, 10^-6 M quercetin alone
# [6] = Homo sapiens, Keratinocyte, 72 h, 2.5 × 10^-7 M, 72 hour treatment, Table 4 (Example 4), n = 3, read-out: mean TGase/DNA (% control)
# [7] = Example 3: 2.5×10^-7 M retinoic acid, 2.5×10^-8 M retinyl palmitate, 10^-8 M naringenin alone
compound,measurement,setting,value
"CC1=C(/C=C/C(C)=C/C=C/C(C)=C/CO)C(C)(C)CCC1 [Retinol, retinol]","decrease in transglutaminase level, dose dependence",[1],dose dependent
same,activity at 0.25 µM,[1]; 2.5 × 10^-7 M,47%
same,activity at 0.025 µM,[1]; 2.5 × 10^-8 M,77%
same,activity at 0.0025 µM,[1]; 2.5 × 10^-9 M,> 100%
same,mean TGase/DNA × 10^-5 ± s.d,[2]; [3],61.93 ± 5.18 × 10^-5
same,mean TGase/DNA × 10^-5 ± s.d,"[2]; 2.5 × 10^-9 M retinol, 72 hour treatment, Table 2 (Example 2), n = 3",48.31 ± 5.31 × 10^-5
same,mean TGase/DNA (% control),"[2]; 2.5 × 10^-9 M retinol, 72 hour treatment, Table 2 (Example 2), n = 3, 0.0025 µM, 4320 min",91%
same,repression of keratinocyte TG1 level (in words),[2]; [4],ineffective
same,repression of keratinocyte TG1 level (in words),[2]; [5],ineffective
same,activity at 0.25 µM,[2]; [6],90%
same,activity at 0.0025 µM,"[2]; Homo sapiens, Keratinocyte, 72 h, 2.5 × 10^-9 M retinol, 72 hour treatment, Table 2 (Example 2), n = 3, read-out: mean TGase/DNA (% control)",92%
same,inhibition of keratinocyte differentiation compared with retinoic acid,[2],significantly less effective than retinoic acid
"O=c1c(O)c(-c2ccc(O)c(O)c2)oc2cc(O)cc(O)c12 [Quercetin, quercetin]",mean TGase/DNA × 10^-5 ± s.d,"[2]; 10^-6 M quercetin, 72 hour treatment, Table 4 (Example 4), n = 3",59.04 ± 3.38 × 10^-5
same,repression of keratinocyte TG1 level (in words),[2]; [5],only a small inhibitory effect
same,activity at 1 µM,"[2]; Homo sapiens, Keratinocyte, 72 h, 10^-6 M quercetin, 72 hour treatment, Table 4 (Example 4), n = 3, read-out: mean TGase/DNA (% control)",85%
"O=C1C[C@@H](c2ccc(O)cc2)Oc2cc(O)cc(O)c21 [Naringenin, naringenin]",mean TGase/DNA × 10^-5 ± s.d,"[2]; 10^-7 M naringenin, 72 hour treatment, Table 2 (Example 2), n = 3",49.84 ± 2.76 × 10^-5
same,mean TGase/DNA × 10^-5 ± s.d,"[2]; 10^-8 M naringenin, 72 hour treatment, Table 3 (Example 3), n = 3",45.01 ± 1.90 × 10^-5
same,repression of keratinocyte TG1 level (in words),[2]; [4],no inhibitory effect
same,repression of keratinocyte TG1 level (in words),[2]; [7],small inhibitory effect
same,activity at 0.1 µM,"[2]; Homo sapiens, Keratinocyte, 72 h, 10^-7 M naringenin, 72 hour treatment, Table 2 (Example 2), n = 3, read-out: mean TGase/DNA (% control)",94%
same,activity at 0.01 µM,"[2]; Homo sapiens, Keratinocyte, 72 h, 10^-8 M naringenin, 72 hour treatment, Table 3 (Example 3), n = 3, read-out: mean TGase/DNA (% control)",89%
"CC1=C(/C=C/C(C)=C/C=C/C(C)=C/C(=O)O)C(C)(C)CCC1 [Retinoic acid, retinoic acid]",mean TGase/DNA × 10^-4 ± s.d,[1]; 2.5 × 10^-7 M,0.16 ± 0.11 × 10^-4
same,mean TGase/DNA × 10^-4 ± s.d,[1]; 2.5 × 10^-8 M,1.34 ± 0.40 × 10^-4
same,mean TGase/DNA × 10^-4 ± s.d,[1]; 2.5 × 10^-9 M,1.87 ± 0.49 × 10^-4
same,"decrease in transglutaminase level, dose dependence",[1],in a dose dependant manner decreased transglutaminase I levels
same,"decrease in transglutaminase level, dose dependence",[1]; listed as retinoic acid,dose dependent
same,activity at 0.25 µM,[1]; 2.5 × 10^-7 M,7%
same,activity at 0.025 µM,[1]; 2.5 × 10^-8 M,55%
same,activity at 0.0025 µM,[1]; 2.5 × 10^-9 M,77%
same,effect on keratinocyte differentiation,"[1]; all concentrations tested, versus ethanol control, Example 1",decreased keratinocyte differentiation
same,extent of decrease versus corresponding retinol treatments,"[1]; all concentrations tested, Example 1",significantly greater extent
same,mean TGase/DNA × 10^-5 ± s.d,"[2]; 2.5 × 10^-7 M RA, 72 hour treatment, Table 2 (Example 2), n = 3",22.47 ± 2.31 × 10^-5
same,mean TGase/DNA × 10^-5 ± s.d,"[2]; 2.5 × 10^-7 M RA, 72 hour treatment, Table 3 (Example 3), n = 3",16.31 ± 2.58 × 10^-5
same,mean TGase/DNA × 10^-5 ± s.d,[2]; [3],35.91 ± 3.01 × 10^-5
same,repression of keratinocyte TG1 level (in words),[2]; [4],very effective
same,repression of keratinocyte TG1 level (in words),[2]; [7],very effective
same,repression of keratinocyte TG1 level (in words),[2]; [5],effective
same,activity at 0.25 µM,"[2]; Homo sapiens, Keratinocyte, 72 h, 2.5 × 10^-7 M RA, 72 hour treatment, Table 2 (Example 2), n = 3, read-out: mean TGase/DNA (% control)",42%
same,activity at 0.25 µM,"[2]; Homo sapiens, Keratinocyte, 72 h, 2.5 × 10^-7 M RA, 72 hour treatment, Table 3 (Example 3), n = 3, read-out: mean TGase/DNA (% control)",32%
same,activity at 0.25 µM,[2]; [6],52%
"CCCCCCCCCCCCCCCC(=O)OC/C=C(C)/C=C/C=C(C)/C=C/C1=C(C)CCCC1(C)C [Retinyl palmitate, retinyl palmitate]",mean TGase/DNA × 10^-5 ± s.d,"[2]; 2.5 × 10^-8 M retinyl palmitate, 72 hour treatment, Table 3 (Example 3), n = 3",47.32 ± 4.22 × 10^-5
same,repression of keratinocyte TG1 level (in words),[2]; [7],ineffective
same,activity at 0.025 µM,"[2]; Homo sapiens, Keratinocyte, 72 h, 2.5 × 10^-8 M retinyl palmitate, 72 hour treatment, Table 3 (Example 3), n = 3, read-out: mean TGase/DNA (% control)",93%
same,inhibition of keratinocyte differentiation compared with retinoic acid,[2],significantly less effective than retinoic acid
